According to ChEMBL document CHEMBL3745711, “Discovery of potent and orally bioavailable inhibitors of Human Uric Acid Transporter 1 (hURAT1) and binding mode prediction using homology model” (Bioorg Med Chem Lett, 2016):

Tests used:
[1] = biological target: T1, Solute carrier family 22 member 12 (Homo sapiens, UniProt Q96S37); experiment: Inhibition of human URAT1 expressed in HEK293 cells assessed as [14C]uric acid uptake after 12 mins by scintillation counter; format: cell-based
T1 sequence (Q96S37 whole entry): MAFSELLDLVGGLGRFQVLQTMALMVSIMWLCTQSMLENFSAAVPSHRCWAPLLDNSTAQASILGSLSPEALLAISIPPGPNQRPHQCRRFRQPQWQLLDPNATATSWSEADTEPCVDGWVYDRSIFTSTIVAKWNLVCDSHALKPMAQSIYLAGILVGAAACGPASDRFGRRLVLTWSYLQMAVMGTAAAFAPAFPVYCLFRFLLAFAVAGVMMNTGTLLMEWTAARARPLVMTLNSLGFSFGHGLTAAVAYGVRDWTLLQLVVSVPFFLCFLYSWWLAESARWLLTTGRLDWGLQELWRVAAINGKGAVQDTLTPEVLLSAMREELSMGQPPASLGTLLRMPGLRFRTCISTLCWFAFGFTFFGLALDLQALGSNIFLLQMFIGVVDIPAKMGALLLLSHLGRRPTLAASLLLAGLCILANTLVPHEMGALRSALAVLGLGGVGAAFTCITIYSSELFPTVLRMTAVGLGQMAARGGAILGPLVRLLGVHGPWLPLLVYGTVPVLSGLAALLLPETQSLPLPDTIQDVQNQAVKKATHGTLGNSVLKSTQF

[2] = Intrinsic clearance in rat liver microsomes; format: ADME; settings: read-out: CLH
[3] = Half life in rat liver microsomes; format: ADME
[4] = Intrinsic clearance in monkey liver microsomes; format: ADME, Macaca mulatta; settings: rhesus monkey, read-out: CLH
[5] = Half life in monkey liver microsomes; format: ADME, Macaca mulatta; settings: rhesus monkey
[6] = Intrinsic clearance in human liver microsomes; format: ADME; settings: read-out: CLH
[7] = Half life in human liver microsomes; format: ADME
[8] = Plasma protein binding in human; format: ADME, cell-free; settings: read-out: PPB (converted)
[9] = Tmax in Sprague-Dawley rat at 3 mg/kg, po by LC-MS/MS analysis; format: ADME, organism-based; settings: in vivo
[10] = Cmax in Sprague-Dawley rat at 3 mg/kg, po by LC-MS/MS analysis; format: ADME, organism-based; set-up: dose 3 mg/kg, route oral; settings: in vivo
[11] = AUC (0 to t) in Sprague-Dawley rat at 3 mg/kg, po by LC-MS/MS analysis; format: ADME, organism-based; settings: in vivo
[12] = Half life in Sprague-Dawley rat at 3 mg/kg, po by LC-MS/MS analysis; format: ADME, organism-based; settings: in vivo
[13] = Clearance in Sprague-Dawley rat at 3 mg/kg, po by LC-MS/MS analysis; format: ADME, organism-based; settings: in vivo
[14] = Apparent volume of distribution in Sprague-Dawley rat at 3 mg/kg, po by LC-MS/MS analysis; format: ADME, organism-based; settings: in vivo, read-out: Vz/F
[15] = Mean residence time in Sprague-Dawley rat at 3 mg/kg, po by LC-MS/MS analysis; format: ADME, organism-based; settings: in vivo
[16] = system: Rattus norvegicus; experiment: Apparent volume of distribution in Sprague-Dawley rat at 3 mg/kg, iv by LC-MS/MS analysis; format: ADME, organism-based; settings: in vivo
[17] = Tmax in beagle dog at 5 mg/kg, po by LC-MS/MS analysis; format: ADME, organism-based, Canis lupus familiaris; settings: in vivo
[18] = Cmax in beagle dog at 5 mg/kg, po by LC-MS/MS analysis; format: ADME, organism-based, Canis lupus familiaris; set-up: dose 5 mg/kg, route oral; settings: in vivo
[19] = system: Canis familiaris; experiment: AUC (0 to t) in beagle dog at 5 mg/kg, po by LC-MS/MS analysis; format: ADME, organism-based, Canis lupus familiaris; settings: in vivo
[20] = Mean residence time in beagle dog at 5 mg/kg, po by LC-MS/MS analysis; format: ADME, organism-based, Canis lupus familiaris; settings: in vivo
[21] = system: Canis familiaris; experiment: Apparent volume of distribution in beagle dog at 5 mg/kg, po by LC-MS/MS analysis; format: ADME, organism-based, Canis lupus familiaris; settings: in vivo
[22] = Bioavailability in Sprague-Dawley rat at 3 mg/kg, iv by LC-MS/MS analysis; format: ADME, organism-based; settings: in vivo
[23] = Cmax in beagle dog at 1 mg/kg, iv by LC-MS/MS analysis; format: ADME, organism-based, Canis lupus familiaris; set-up: dose 1 mg/kg, route intravenous; settings: in vivo
[24] = system: Canis familiaris; experiment: AUC (0 to t) in beagle dog at 1 mg/kg, iv by LC-MS/MS analysis; format: ADME, organism-based, Canis lupus familiaris; settings: in vivo
[25] = Mean residence time in beagle dog at 1 mg/kg, iv by LC-MS/MS analysis; format: ADME, organism-based, Canis lupus familiaris; settings: in vivo
[26] = system: Canis familiaris; experiment: Half life in beagle dog at 1 mg/kg, iv by LC-MS/MS analysis; format: ADME, organism-based, Canis lupus familiaris; settings: in vivo
[27] = system: Canis familiaris; experiment: Apparent volume of distribution in beagle dog at 1 mg/kg, iv by LC-MS/MS analysis; format: ADME, organism-based, Canis lupus familiaris; settings: in vivo
[28] = Bioavailability in beagle dog at 1 mg/kg, iv by LC-MS/MS analysis; format: ADME, organism-based, Canis lupus familiaris; settings: in vivo
[29] = Half life in Sprague-Dawley rat at 3 mg/kg, iv by LC-MS/MS analysis; format: ADME, organism-based; settings: in vivo
[30] = Tmax in cynomolgus monkey at 10 mg/kg, po by LC-MS/MS analysis; format: ADME, organism-based, Macaca fascicularis; settings: in vivo
[31] = Cmax in cynomolgus monkey at 10 mg/kg, po by LC-MS/MS analysis; format: ADME, organism-based, Macaca fascicularis; set-up: dose 10 mg/kg, route oral; settings: in vivo
[32] = AUC (0 to t) in cynomolgus monkey at 10 mg/kg, po by LC-MS/MS analysis; format: ADME, organism-based, Macaca fascicularis; settings: in vivo
[33] = Mean residence time in cynomolgus monkey at 10 mg/kg, po by LC-MS/MS analysis; format: ADME, organism-based, Macaca fascicularis; settings: in vivo
[34] = Half life in cynomolgus monkey at 10 mg/kg, po by LC-MS/MS analysis; format: ADME, organism-based, Macaca fascicularis; settings: in vivo
[35] = Clearance in cynomolgus monkey at 10 mg/kg, po by LC-MS/MS analysis; format: ADME, organism-based, Macaca fascicularis; settings: in vivo
[36] = Apparent volume of distribution in cynomolgus monkey at 10 mg/kg, po by LC-MS/MS analysis; format: ADME, organism-based, Macaca fascicularis; settings: in vivo, read-out: Vz/F
[37] = system: Canis familiaris; experiment: Half life in beagle dog at 5 mg/kg, po by LC-MS/MS analysis; format: ADME, organism-based, Canis lupus familiaris; settings: in vivo
[38] = system: Rattus norvegicus; experiment: Toxicity in Sprague-Dawley rat assessed as no adverse effect at 100 mg/kg once daily for 1 week; format: organism-based; settings: in vivo, 168 h
[39] = Toxicity in Sprague-Dawley rat administered once daily for 1 week; format: organism-based; settings: in vivo
[40] = system: Cynomolgus monkey; experiment: Decrease in uric acid level in cynomolgus monkey serum administered as single oral dose measured after 24 hrs; format: functional, organism-based; settings: Macaca fascicularis
[41] = Cmax in Sprague-Dawley rat at 3 mg/kg, iv by LC-MS/MS analysis; format: ADME, organism-based; set-up: dose 3 mg/kg, route intravenous; settings: in vivo
[42] = AUC (0 to t) in Sprague-Dawley rat at 3 mg/kg, iv by LC-MS/MS analysis; format: ADME, organism-based; settings: in vivo
[43] = Mean residence time in Sprague-Dawley rat at 3 mg/kg, iv by LC-MS/MS analysis; format: ADME, organism-based; settings: in vivo
[44] = Clearance in Sprague-Dawley rat at 3 mg/kg, iv by LC-MS/MS analysis; format: ADME, organism-based; settings: in vivo

Compound: O=C(O)C1(Sc2ccnc3ccc(-c4ccccc4F)cc23)CCC1
- IC50 [1]: 333 nM

Compound: N#CCCc1ccc2nccc(SC3(C(=O)O)CCC3)c2c1
- IC50 [1]: 2760 nM

Compound: O=C1COc2cccc(SC3(C(=O)O)CCC3)c2N1
- IC50 [1]: > 10000 nM

Compound: O=C(O)C1(Sc2ccnc3ccc(Br)cc23)CCCC1
- IC50 [1]: 324 nM

Compound: Nc1ccc2nccc(SC3(C(=O)O)CCC3)c2c1
- IC50 [1]: 1790 nM

Compound: O=C(O)C1(Sc2ccnc3ccc(C(F)(F)F)cc23)CCC1
- microsomal CLint [2]: 4.7 µL/min/mg
- half-life [3]: 3.08 h
- microsomal CLint [4]: 4.9 µL/min/mg
- half-life [5]: 3.15 h
- microsomal CLint [6]: 3.3 µL/min/mg
- half-life [7]: 4.62 h
- fraction unbound [8]: 0.001
- Tmax [9]: 1 h
- Cmax [10]: 2700 ng/mL
- AUC(0-t) [11]: 38200 ng·h/mL
- half-life [12]: 8.8 h
- CL/F [13]: 2 mL/min/kg
- Vd/F [14]: 1.2 L/kg

Compound: O=C(Nc1ccc2nccc(SC3(C(=O)O)CCC3)c2c1)C1CC1
- IC50 [1]: > 10000 nM

Compound: O=C(O)C1(Sc2ccnc3ccc(OCCO)cc23)CCC1
- IC50 [1]: 1890 nM

Compound: O=C(O)C1(Sc2ncnc3ccccc23)CCC1
- IC50 [1]: > 10000 nM

Compound: O=C(O)C1(Sc2ccnc3ccccc23)CCC1
- IC50 [1]: 448 nM
- microsomal CLint [2]: 2.1 µL/min/mg
- half-life [3]: 6.88 h
- microsomal CLint [4]: 3 µL/min/mg
- half-life [5]: 4.82 h
- microsomal CLint [6]: 7.2 µL/min/mg
- half-life [7]: 2.02 h
- fraction unbound [8]: 0.002
- Tmax [9]: 0.5 h
- Cmax [10]: 8800 ng/mL
- AUC(0-t) [11]: 20700 ng·h/mL
- MRT [15]: 3.2 h
- half-life [12]: 2.8 h
- CL/F [13]: 2.5 mL/min/kg
- Vd/F [14]: 0.69 L/kg

Compound: O=C(O)C1(Sc2ccnc3ccc(-c4ccc(C(F)(F)F)cc4)cc23)CCC1
- IC50 [1]: 1750 nM

Compound: CC(=O)Nc1ccc2nccc(SC3(C(=O)O)CCC3)c2c1
- IC50 [1]: > 10000 nM

Compound: O=C(O)C1(Oc2ncnc3ccccc23)CCC1
- IC50 [1]: > 10000 nM

Compound: O=C(O)C1(Sc2ccnc3ccc(Br)cc23)CCC1 [SHR-4640]
- Vz/F [16]: 0.12 L/kg
- Tmax [17]: 0.5 h
- Cmax [18]: 7700 ng/mL
- AUCt [19]: 18600 ng·h/mL
- MRT [20]: 5 h
- Vz/F [21]: 2.1 L/kg
- bioavailability [22]: 74.8%
- Cmax [23]: 4700 ng/mL
- AUCt [24]: 4400 ng·h/mL
- MRT [25]: 3.2 h
- t1/2 [26]: 4.7 h
- Vz/F [27]: 1.6 L/kg
- bioavailability [28]: 86.1%
- half-life [29]: 4.9 h
- Tmax [30]: 0.5 h
- Cmax [31]: 46900 ng/mL
- AUC(0-t) [32]: 132000 ng·h/mL
- MRT [33]: 6.3 h
- half-life [34]: 7.3 h
- CL/F [35]: 1.3 mL/min/kg
- Vd/F [36]: 0.8 L/kg
- t1/2 [37]: 5.2 h
- Activity [38]: Non-toxic
- MTD at 168 h [39]: 300 mg/kg
- inhibition [40]: Dose-dependent effect
- IC50 [1]: 33.7 nM
- microsomal CLint [2]: 4.4 µL/min/mg
- half-life [3]: 3.28 h
- microsomal CLint [4]: 2.6 µL/min/mg
- half-life [5]: 5.8 h
- microsomal CLint [6]: 1.1 µL/min/mg
- half-life [7]: 13.6 h
- fraction unbound [8]: 0.013
- Tmax [9]: 1.2 h
- Cmax [10]: 20500 ng/mL
- AUC(0-t) [11]: 146000 ng·h/mL
- MRT [15]: 6.8 h
- half-life [12]: 4.4 h
- CL/F [13]: 0.39 mL/min/kg
- Vd/F [14]: 0.14 L/kg
- Cmax [41]: 99700 ng/mL
- AUC(0-t) [42]: 193000 ng·h/mL
- MRT [43]: 6 h
- clearance [44]: 0.29 mL/min/kg

Compound: O=C(O)C1(Sc2ccnc3ccc(Br)cc23)CC1
- IC50 [1]: 352 nM

Compound: O=C(O)C1(Sc2ccnc3cccnc23)CCC1
- IC50 [1]: > 10000 nM

Compound: O=C(O)C1(Sc2ccnc3ccc(-c4cccc(F)c4)cc23)CCC1
- IC50 [1]: 1190 nM

Compound: O=C(O)C1(Sc2ccnc3ccncc23)CCC1
- IC50 [1]: 1930 nM

Compound: CNC(=O)COc1ccc2nccc(SC3(C(=O)O)CCC3)c2c1
- IC50 [1]: > 10000 nM

Compound: O=C(O)C1(Sc2ccnc3ccc(CO)cc23)CCC1
- IC50 [1]: 1260 nM

Compound: O=C(O)C1(Sc2ccnc3ccc(O)cc23)CCC1
- IC50 [1]: > 10000 nM

Compound: O=C(O)C1(Sc2nccc3ncccc23)CCC1
- IC50 [1]: > 10000 nM
